Laboratory results: patent publication US9693995B2, “Pharmaceutical composition for topical administration” (Ziarco Pharma Ltd., priority 2014, dated 2017)

Legend:
PLA2 = settings: read-out: IC50, inhibition of PLA2 activity; acid extracted intact human neutrophil homogenate; Marshall et al. 1995; cited from earlier work
PMA-mediated skin oedema = assay: PMA-induced inflammation in mice (ear thickness by calliper); type: in vivo, Balb/C laboratory mice
Protocol: Phorbol 12-myristate 13-acetate (PMA) is commonly used to induce inflammation and oedema of the skin of laboratory animals as a preclinical inflammation model.
In the present example PMA was dissolved in a 10% ethanol solution to a final concentration of 0.4 μg per μl. A 10 μl was applied to the ears of Balb/C laboratory mice 1 hour after topical application of 3-{4-[2-{5-chloro-1-(diphenylmethyl)-2-[2-({[2-(trifluoromethyl)benzyl]sulfonyl}amino)ethyl]-1H-indol-3-yl}ethyl]sulfonyl}phenyl}propanoic acid (Compound I) in a 10% ethanol solution at either 0.3% or 3% w/w. As a negative control the vehicle was applied without the active compound. Positive controls were indomethacin (a non-steroidal anti-inflammatory drug) and CAY10650 (a known cPLA2α inhibitor).
The level of oedema was monitored by measurement of ear thickness by calliper at intervals of 1, 3, 6 and 24 hours

[1] = Small scale in vitro permeation/penetration experiment, Franz diffusion cell; type: in vitro ADME, human
Source text: Commonly, in vitro skin permeation experiments involve the use of a diffusion cell designed to mimic the physiological and anatomical conditions of skin in situ. The model used in this experiment was the Franz diffusion cell (Finnin et al. Topical and Transdermal Drug Delivery 2012: 85-100, Benson and Watkinson (Eds), incorporated herein by reference). Skin prepared as described below was positioned between the two halves of the cell with the Stratum corneum facing the donor compartment allowing for drug application. The aim of the work was to compare the drug concentrations permeating into and across dermatomed human skin when applied from different formulations/solvent systems. […]
Two solvent systems were selected for a small scale in vitro drug permeation study and was dosed as described below: • (i) The cells were assembled as described above. • (ii) Nine cells were assembled. Two solvent system (n=3), respective placebo solvent system (n=1) and a blank cell (n=1) were assessed during the feasibility experiment. • (iii) The selected solvent systems (6 mg) were applied directly to the surface of the skin with a positive displacement pipette (resulting in a dose of approximately 10 mg/cm^2). […] Weights and volumes applied (to ensure a 6 mg dose) were recorded. • (iv) Receiver fluid (200 μL) was removed at the following time points t=0, 1, 2, 4, 6, 24, 30 and 48 h. […]

cPLA2α = target: T1, cPLA2α (Homo sapiens, UniProt P47712); settings: cellular and enzymatic assays; cited from earlier work
T1 sequence (P47712 1-749): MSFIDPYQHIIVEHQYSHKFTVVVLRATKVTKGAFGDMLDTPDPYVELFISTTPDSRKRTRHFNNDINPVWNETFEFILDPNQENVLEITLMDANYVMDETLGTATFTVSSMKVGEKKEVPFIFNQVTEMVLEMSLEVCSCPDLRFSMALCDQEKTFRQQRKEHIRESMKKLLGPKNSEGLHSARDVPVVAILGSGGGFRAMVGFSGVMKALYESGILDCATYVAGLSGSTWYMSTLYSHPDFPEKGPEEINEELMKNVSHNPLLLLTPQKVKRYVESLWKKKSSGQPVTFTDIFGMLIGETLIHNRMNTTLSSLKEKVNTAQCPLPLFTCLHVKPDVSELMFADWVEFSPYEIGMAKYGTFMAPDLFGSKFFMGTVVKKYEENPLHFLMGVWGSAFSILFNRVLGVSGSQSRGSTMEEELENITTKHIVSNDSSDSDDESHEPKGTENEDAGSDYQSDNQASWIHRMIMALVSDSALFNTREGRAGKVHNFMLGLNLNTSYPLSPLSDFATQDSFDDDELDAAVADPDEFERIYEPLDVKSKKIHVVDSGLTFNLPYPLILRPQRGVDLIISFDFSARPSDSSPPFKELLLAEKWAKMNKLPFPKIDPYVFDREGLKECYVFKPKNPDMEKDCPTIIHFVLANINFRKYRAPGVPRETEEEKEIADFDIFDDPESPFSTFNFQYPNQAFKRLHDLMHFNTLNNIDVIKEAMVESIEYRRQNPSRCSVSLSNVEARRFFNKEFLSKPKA

Row | SMILES | IC50 (PLA2) | efficacy against PMA-mediated skin oedema relative to positive control (PMA-mediated skin oedema; topical Compound I versus orally-dosed indomethacin) | reduction in PMA-mediated skin oedema (PMA-mediated skin oedema; topical, 0.3% or 3% w/w in 10% ethanol solution, 1 hour before PMA on ears, ear thickness at 1, 3, 6 and 24 hours) | total recovery of Compound I ([1]; for each solvent system applied (SS1, SS2), after t=48 h, single skin donor) | Compound I detected in the receiver fluid ([1]; solvent systems SS1 and SS2, 48 h experiment, irrespective of sample volume (200 μL, 1.5 mL), receiver fluid EtOH 20% v/v in water) | inhibition of cPLA2α activity (potency in words) (cPLA2α)
1 | O=C(O)c1ccccc1Oc1ccc(C(F)(F)F)cc1NS(=O)(=O)c1cc(C(F)(F)F)cc(C(F)(F)F)c1 [SB 203347] | 4.7 µM | – | – | – | – | –
2 | O=C(O)CCc1ccc(S(=O)(=O)CCc2c(CCNS(=O)(=O)Cc3ccccc3C(F)(F)F)n(C(c3ccccc3)c3ccccc3)c3ccc(Cl)cc23)cc1 [Compound I] | – | comparable to orally-dosed indomethacin | dose-dependent reduction | 90.00-109.72 % of the applied dose | not detected | sub-low nanomolar inhibitor
